Values of other authors in patent publication US9387185B2, “N-ω-hydroxy-L-arginine derivatives for the treatment of diseases” (Christian-Albrechts-Universität Zu Kiel, priority 2009, dated 2016).

Key:
[1] = biological target: T1, arginase I (Homo sapiens, UniProt P05089)
T1 sequence (P05089 1-322): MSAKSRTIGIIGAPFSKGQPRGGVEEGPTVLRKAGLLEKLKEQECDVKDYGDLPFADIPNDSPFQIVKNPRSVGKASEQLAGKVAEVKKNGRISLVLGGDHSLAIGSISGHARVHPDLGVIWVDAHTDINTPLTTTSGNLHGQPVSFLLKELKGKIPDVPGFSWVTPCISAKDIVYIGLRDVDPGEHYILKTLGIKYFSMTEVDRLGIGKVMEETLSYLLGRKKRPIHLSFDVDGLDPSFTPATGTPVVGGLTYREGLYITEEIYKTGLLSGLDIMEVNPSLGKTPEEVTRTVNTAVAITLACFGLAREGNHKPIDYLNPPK

[2] = test system: rats; conditions: i.v.

Ki [1]: 30 to 42 µM
Structure (SMILES): N=C(NO)NCCC[C@H](N)C(=O)O [NOHA, N^ω-hydroxy-L-arginine]
effects for treating the erectile dysfunction, endothelial dysfunction and hypertension [2]: desired effects for treating the erectile dysfunction, endothelial dysfunction and hypertension could already be demonstrated
